Laboratory results: patent US6486326B2, “iso-CBI and iso-CI analogs of CC-1065 duocarmycins” (The Scripps Research Institute, priority 1997, dated 2002)
Several values for one entry are separate records, joined by “and”; a condition that tells them apart may be missing. Equal values may be shown once.

Columns and labels:
[1] = tested on: w836 DNA (146 bp); experiment: DNA alkylation selectivity and efficiency, thermally-induced strand cleavage of w836 DNA; format: biochemical
Protocol: FIG. 6 illustsrates thermally-induced strand cleavage of w836 DNA (146 bp, nucleotide nos. 5189-91): DNA-agent incubation for 24 h ((−)-iso-CBI-TMI) at 25° C., removal of unbound agent and 30 min of thermolysis (100° C.), followed by denaturing 8% PAGE and autoradiography; lane 1, control DNA; lanes 2-5, Sanger G, C, A, and T sequencing reactions; lanes 6-8 (−)-iso-CBI-TMI ([…] to 1×10^−5 M); lanes 9-10, (+)-duocarmycin SA (1×10^−5 to 1×10^−6 M); lanes 11-12, (+)-iso-CBI-TMI (1×10^−2 and 1×10^−3).
DNA Alkylation Selectivity and Efficiency: The DNA alkylation properties of the agents were examined within w794 and w836 duplex DNA for which comparative results are available for related agents. (Boger, D. L., et al., J. Am. Chem. Soc. 1994, 116, 11335; Boger, D. L., et al., J. Am. Chem. Soc. 1994, 116, 6461; and Boger, D. L., et al., J. Am. Chem. Soc. 1995, 117, 11647) The alkylation site identification and the assessment of the relative selectivity among the available sites were obtained by thermally-induced strand cleavage of the singly 5′ end-labeled duplex DNA after exposure to the agents. […]

[2] = tested on: calf thymus DNA; experiment: Calf thymus DNA alkylation, quantitation of adenine N3 adduct; format: biochemical; details: for conversion to thermally released adenine adduct 66: 4° C., 72 h, ca. 150 bp, then 100° C., 30 min, pH 7.0, four runs
Protocol: This was addressed through a study of the alkylation of calf thymus DNA. Optimized conditions for the alkylation were established for (−)-44 on an analytical scale (100 μg of agent). For this purpose, the long-wavelength UV absorption of the agent and the adduct provided a useful quantitative measure of the adenine adduct, unreacted starting material and any side products (solvolysis or rearrangement), Table 3. Analytical HPLC analysis was used to confirm the identity of the products through correlation of retention times and UV spectral data with authentic materials. The preparative DNA alkylation reaction and subsequent isolation of (+)-66 was carried out under conditions determined to provide complete consumption of the agent in the presence of a large excess of DNA Thus, extraction (EtOAc) of the aqueous buffer solution containing calf thymus DNA following alkylation (4° C., 72 h, 150 bp) afforded no recovered (−)-44, and only a small amount (<5%) of the rearranged product 65. Conducting the reaction at 4° C. in the presence of a large excess of DNA precluded competitive solvolysis. Thermal treatment of the alkylated DNA in aqueous 10 mM sodium phosphate buffer (100° C., 30 min, pH 7.0) followed by EtOAc extraction provided 66 in 90-95% conversion, ≧95% purity (by HPLC). Repeating this thermal treatment provided little or no additional adduct. No trace of a competing guanine adduct could be detected. This high conversion to a single adduct established that 44 participates exclusively in the adenine N3 alkylation reaction under the conditions examined.

`COc1cc2cc(C(=O)N3CC4CC45C(=O)c4ccccc4C=C35)[nH]c2c(OC)c1OC` (single isomer, unassigned; (-)) [(−)-iso-CBI-TMI, 2-[(5,6,7-Trimethoxyindol-2-yl)carbonyl]-1,2,9,9a-tetrahydrocyclopropa[c]benzo[f]indol-8-one] was tested, and the “DNA alkylation sites / selectivity” value [1] was “same sites as (+)-duocarmycin SA”, the “conversion to thermally released adenine adduct 66” value [2] was 95% and 90-95% and the “conversion to thermally released adenine adduct 66” value ([2]; listed as (−)-44) was 90-95%. For the same compound, the “consumption of the agent accounted for by adenine N3 addition” value ([2]; in the presence of duplex DNA) was 90-100%.
